Source: PubChem BioAssay (NCI)
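Interpolation was linear, between the two tested concentrations surrounding the appropriate level; five concentrations were tested over 48 hours in 96-well plates. Here, GI50 denotes the concentration required for 50% inhibition of growth. TGI denotes the concentration required for complete inhibition of growth.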

Columns and labels:
Assay in all cases: NCI tumour cell line growth inhibition, 48 h
[1] = tested on: COLO 205 colon
[2] = tested on: M14 melanoma
[3] = tested on: NCI-H23 lung
[4] = tested on: RXF 393 renal
[5] = tested on: SF-295 CNS
[6] = tested on: SN12C renal
[7] = tested on: TK-10 renal
[8] = tested on: U251 CNS
[9] = tested on: UO-31 renal
[10] = tested on: MCF7 breast
[11] = tested on: MDA-MB-231 breast
[12] = tested on: PC-3 prostate
[13] = tested on: T-47D breast
[14] = tested on: MDA-N

Row | SMILES | TGI [1] [µM] | TGI [2] [µM] | TGI [3] [µM] | TGI [4] [µM] | TGI [5] [µM] | TGI [6] [µM] | TGI [7] [µM] | TGI [8] [µM] | TGI [9] [µM] | TGI [10] [µM] | TGI [11] [µM] | TGI [12] [µM] | TGI [13] [µM] | TGI [14] [µM] | GI50 [11] [µM] | GI50 [12] [µM] | GI50 [4] [µM] | GI50 [5] [µM] | GI50 [9] [µM]
1 | CCCC(C)n1c(C)nc2c1C(=O)c1ccccc1C2=O (stereo unspecified) | > 100 | 93.7 | 36.2 | 69.2 | > 100 | > 100 | > 100 | > 100 | 93.3 | – | – | – | – | – | – | – | – | – | –
2 | COc1cc([C@@H]2c3cc4c(cc3[C@@H](Nc3ccccc3C(=O)c3ccccc3)[C@H]3COC(=O)[C@H]23)OCO4)cc(OC)c1OC | 1.42 | > 53.7 | > 100 | > 100 | > 100 | > 100 | > 100 | 0.979 | > 100 | > 100 | > 66.1 | > 78.7 | > 100 | – | – | – | – | – | –
3 | O=c1cc(NNc2cccc(F)c2)[nH]c(=O)[nH]1 | > 100 | 33.9 | > 100 | 35.1 | > 100 | > 100 | 27.2 | 31 | 95.8 | – | 30.4 | > 100 | 31.7 | > 100 | – | – | – | – | –
4 | CSC1C(=O)Nc2ccc3ccccc3c21 (stereo unspecified) | 43.3 | 68.3 | > 100 | – | > 100 | 41.9 | 33.2 | 33.6 | 33.2 | > 100 | 56.5 | 35 | 29.4 | > 100 | – | – | – | – | –
5 | COP(=O)(OC)C(NC(=O)C(F)(F)F)(c1ccccc1)C(F)(F)F (stereo unspecified) | > 100 | > 100 | > 100 | > 100 | > 100 | > 100 | > 100 | > 100 | > 100 | – | – | – | – | – | – | – | – | – | –
6 | CCCCCc1cc2cc3c(c(O)c2c(=O)[nH]1)C1(CCC3)C(O)=c2c(=O)c3c(=O)cc(OC)c(=O)c=3c(=O)c2=C1O (stereo unspecified) | 0.564 | 3.33 | 3.37 | 1.82 | 11 | 3.91 | – | 2.61 | 1.94 | 2.06 | 4.28 | 3.66 | 2.76 | 3.84 | – | – | – | – | –
7 | COc1cc2cc(C(=O)N3CC(CCl)c4c3cc(NC(=O)OCc3ccc([N+](=O)[O-])cc3)c3ccccc43)[nH]c2c(OC)c1OC (stereo unspecified) | > 100 | > 100 | > 45.4 | > 100 | > 56.2 | > 100 | – | > 100 | 0.516 | > 100 | > 81.5 | > 100 | > 100 | > 100 | – | – | – | – | –
8 | O=C1C=CC(=C(c2ccc(O)cc2)c2ccc(O)cc2)C=C1 | 32.4 | 26.4 | 21.2 | 16.9 | 25.1 | 21 | 33.4 | 22.6 | 31.1 | – | – | – | – | – | – | – | – | – | –
9 | COc1cc(C2=NNC(=O)c3ccccc3N2c2nc(-c3cccs3)nc3ccc(Br)cc23)cc(OC)c1OC | > 100 | 73.8 | 53.4 | – | 31.7 | > 100 | 89.9 | 92.9 | > 100 | 7.28 | > 100 | > 100 | > 100 | – | – | – | – | – | –
10 | CC(=O)c1ccccc1NCC(=O)Nn1cnc2ccc(S(=O)(=O)Nc3ccccc3C(C)=O)cc2c1=O | > 100 | > 100 | > 100 | – | > 100 | > 100 | > 100 | > 100 | > 100 | > 100 | > 100 | > 100 | – | > 100 | – | – | – | – | –
11 | O=[N+]([O-])c1ccccc1S(=O)(=O)c1ccccc1 | > 100 | > 100 | > 100 | > 100 | > 100 | > 100 | > 100 | > 100 | 90.6 | – | – | – | – | – | – | – | – | – | –
12 | COC(=O)[C@H]1NC(=O)CCSSC1(C)C | > 100 | > 100 | > 100 | > 100 | > 100 | > 100 | > 100 | > 100 | > 100 | > 100 | > 100 | > 100 | > 100 | – | – | – | – | – | –
13 | CCOP(=O)(OCC)C(c1ccccc1)N(C(=O)NC(F)(F)F)c1cccc(F)c1 (stereo unspecified) | > 100 | > 100 | > 100 | > 100 | > 100 | > 100 | > 100 | > 100 | > 100 | > 100 | > 100 | > 100 | – | > 100 | – | – | – | – | –
14 | COc1ccc2c(c1)C/C(=C\c1cccc3ccccc13)C2=O | – | > 100 | 24.2 | 22.5 | – | > 100 | > 100 | 81.3 | > 100 | > 100 | – | > 100 | – | – | – | – | – | – | –
15 | C[n+]1c(-c2ccc(/C=N/Nc3ccnc(N/N=C/c4ccc(-c5cn6ccsc6[n+]5C)cc4)n3)cc2)cn2ccsc21 | 87.9 | 54.7 | > 100 | 51.9 | – | > 100 | > 100 | > 100 | > 100 | > 100 | > 100 | 79.9 | – | 38.6 | – | – | – | – | –
16 | COc1cc(CNc2cnc3cc(N)ccc3n2)cc(OC)c1OC | 62.2 | 74.3 | > 100 | – | 80.8 | > 100 | > 100 | > 100 | > 100 | – | – | – | – | – | – | – | – | – | –
17 | CN(CCO)CCCC1COc2ccccc2O1 (stereo unspecified) | > 100 | > 100 | > 100 | > 100 | > 100 | > 100 | > 100 | > 100 | > 100 | > 100 | – | > 100 | – | > 100 | – | – | – | – | –
18 | C=CCN1C(=O)/C(=C/c2ccco2)N=C1SC1OC(COC(C)=O)C(OC(C)=O)C(OC(C)=O)C1OC(C)=O (stereo unspecified) | > 100 | – | > 100 | > 100 | > 100 | – | > 100 | > 100 | – | > 100 | > 100 | > 100 | – | – | – | – | – | – | –
19 | COc1ccc(-c2ccc(-c3ccc(C(=N)N)nc3)s2)cc1Cl | – | – | – | 3.23 | 3.24 | – | – | – | 2.91 | – | 3.38 | 3.49 | – | – | 1.7 | 1.78 | 1.76 | 1.8 | 1.55
